Experimental data as given in US11092610B2, “Biomarker SBP1 for early diagnosis of kidney diseases, and use thereof” (CELLGENTEK CO., LTD., priority 2016, dated 2021).
One block for each compound: values may come before it.

How the values were obtained:
[1] = system: Sprague-Dawley rat; assay: Diabetic animal model induced by STZ administration (blood glucose, urine and renal failure markers); assay type: in vivo
Description: To verify a diabetic animal model induced by STZ administration according to Example 1-1 of the present invention, an experiment was carried out by designing the experimental model as described in FIG. 1A.
However, in an experimental group in which diabetic animals are treated with an antidiabetic drug, it was confirmed that a blood glucose level was decreased gradually on Day 7, Day 14 and Day 21, and decreased to almost the normal level on the last day, Day 28.
Then, it was confirmed whether renal failure occurs in a diabetic animal model induced by STZ administration. […] It can be seen that, in the anti-diabetic drug-administered group, the BUN and creatinine levels are decreased to a normal range.

[2] = system: rat; assay: Hepatotoxicity model (carbon tetrachloride), liver findings and urinary SBP1; assay type: in vivo
Description: (§1) The extracted proteins were dissolved, and transferred to a nitrocellulose membrane. Here, methanol was added to a transfer buffer, and the reaction was performed at 80 V for 1 hour. After the proteins were transferred, the membrane was stained with Ponceau S (within 10 seconds to 1 minute, slightly stained to see a band), and sufficiently washed with DW or PBS for blocking. Here, a blocking buffer was used by dissolving 3 to 5% bovine serum albumin (BSA) in a solution in which TWEEN™ 20 was contained in Tris-buffered saline (TBS). A primary antibody was reacted at 4° C. overnight, rinsed with a wash buffer (surfactant-containing TBS or PBS) to remove unbinding primary antibodies, and then secondary antibodies were reacted. After the secondary antibodies were reacted, unbinding secondary antibodies were rinsed with a washing buffer, and a band was identified using luminol.
To confirm whether urinary SBP1 is released in a hepatotoxicity model, a hepatotoxic material such as carbon tetrachloride (CCl4) was administered to a rat to induce hepatotoxicity, and then SBP1 level in urine was measured.

[3] = system: SD rats; assay: Drug (cisplatin)-induced renal failure animal model; assay type: in vivo, rat; details: 10 mg/kg I.P.
Description: On Day 1, Day 3 and Day 5 after the injection, protein contents in urine obtained for 24 hours were measured in rats of the cisplatin-administered experimental group and the untreated control.
as §1
A supernatant was obtained by centrifuging each urine sample at 3000 g for 15 minutes, and stored in a freezer at −80° C. Following the urine collection, experimental animals were anesthetized with carbon dioxide to collect blood from the abdominal aorta, and after natural death due to bleeding, the kidneys and liver were extracted. A supernatant was obtained by centrifuging each blood sample at 1500 g for 15 minutes, and stored in a freezer at −80° C. The obtained urine and blood samples were subjected to detection of conventional markers using a test kit corresponding to each parameter.

[4] = STZ 50 mg/kg single dose I.P., rat
[5] = after administration of hepatotoxic material
[6] = one day after administration, then decreased

BUN, increase compared to the control ([1]; STZ-administered group, rat): ≥ 2 fold
creatinine, increase compared to the control ([1]; STZ-administered group, rat): ≥ 2 fold
microalbumin in urine, increase compared to the control ([1]; STZ-administered group, rat): ≥ 10 fold
urine volume, increase compared to the control ([1]; diabetic animal induced by STZ administration): ≥ 3 fold
SMILES: CN(N=O)C(=O)N[C@@H](C=O)[C@@H](O)[C@H](O)[C@H](O)CO [STZ, streptozocin]
blood glucose level [1, 4]: ≥ 600 mg/dL
blood glucose level, increase compared to the control [1, 4]: ≥ 6 fold

SMILES: ClC(Cl)(Cl)Cl [carbon tetrachloride]
BUN [2, 5]: no changes
SBP1 in urine (western blotting) [2, 5]: not detected
creatinine [2, 5]: no changes
ALT level compared with the control [2, 6]: increased
AST level compared with the control [2, 6]: increased
hepatotoxicity, liver histopathology (H&E staining) ([2]; rat liver, from one day after administration): severe liver failure was observed

SMILES: N.N.[Cl][Pt][Cl] [cisplatin]
BUN compared with the control ([3]; Day 1): no significant differences
kidney tissue damage (histology) ([3]; Day 1): mildly damaged
serum creatinine compared with the control ([3]; Day 1): no significant differences
urinary SBP1 level (western blotting) ([3]; Day 1): increased
BUN compared with the control ([3]; Day 3): significantly increased
serum creatinine compared with the control ([3]; Day 3): significantly increased
urinary SBP1 level compared with the control ([3]; Day 3): highly increased
BUN, increase compared with the control ([3]; Day 5): 3 to 5 fold
kidney tissue damage (histology) ([3]; Day 5): most tubules were severely damaged
serum creatinine, increase compared with the control ([3]; Day 5): 3 to 5 fold
urinary SBP1 level (western blotting) ([3]; Day 5): detected at a very high level
